The results in this text go back to ChEMBL document CHEMBL5055682, “Relaxed Substrate Requirements of Sterol 14α-Demethylase from Naegleria fowleri Are Accompanied by Resistance to Inhibition” (J Med Chem, 2021).

A short description of assay [1]: Inhibition of Naegleria fowleri CYP51 catalytic activity using [3-3H]sterol substrate measured after 1 hr by RP-HPLC analysis.
A short description of assay [2]: Substrate activity at Naegleria fowleri CYP51 expressed in Escherichia coli HMS-174 (DE3) assessed as dissociation constant by Morrison equation.
Assay [3] relates to Naegleria fowleri. Nature of the assay: Substrate activity at Naegleria fowleri CYP51 expressed in Escherichia coli HMS-174 (DE3) assessed as Kcat by spectroscopy.
Assay [4] relates to Naegleria fowleri. The experiment in a line: Substrate activity at Naegleria fowleri CYP51 expressed in Escherichia coli HMS-174 (DE3) assessed as Kcat/Km by spectroscopy.
The test system of assay [5] is Naegleria fowleri. The experiment in a line: Substrate activity at Naegleria fowleri CYP51 expressed in Escherichia coli HMS-174 (DE3) assessed as Km by spectroscopy.
The nature of assay [6]: Binding affinity to Naegleria fowleri CYP51 expressed in Escherichia coli HMS-174 (DE3) assessed as dissociation constant by quadratic Morrison equation.
Assay [7] is described as follows: Substrate activity at Naegleria fowleri CYP51 expressed in Escherichia coli HMS-174 (DE3) assessed as dissociation constant by Michaelis-Menten equation.
The nature of assay [8]: Irreversible inhibitor of Typho-chrestus brucei CYP51.
Assay [9] is described as follows: Irreversible inhibitor of Trigo-noscuta cruzi CYP51.

Each structure is given as a SMILES string.

In assay [1], `CC[C@@H]([C@H](C)O)n1ncn(-c2ccc(N3CCN(c4ccc(OC[C@@H]5CO[C@@](Cn6cncn6)(c6ccc(F)cc6F)C5)cc4)CC3)cc2)c1=O` [POSACONAZOLE] showed an IC50 of 690 nM.
As to `CC(C)=CCC[C@@H](C)[C@H]1CC[C@@]2(C)C3=C(CC[C@]12C)[C@@]1(C)CC[C@H](O)[C@@H](C)[C@@H]1CC3`, the Kd in assay [2] is 271 nM.
Consider `C=C(CC[C@@H](C)[C@H]1CC[C@@]2(C)C3=C(CC[C@]12C)[C@@]1(C)CC[C@H](O)[C@@H](C)[C@@H]1CC3)C(C)C` [OBTUSIFOLIOL], for which the kcat in the assay with Naegleria fowleri [3] was 0.433 s⁻¹. In addition, in the assay on Naegleria fowleri [4], the kcat/Km stood at 53300 M⁻¹ s⁻¹. Moreover, in [2], the dissociation constant Kd came to 23 nM. Besides, the Km in the assay on Naegleria fowleri [5] stood at 8 µM.
For `C[C@@H](c1ncncc1F)[C@](O)(Cn1cncn1)c1ccc(F)cc1F` [VORICONAZOLE], the IC50 in assay [1] was 3220 nM.
On to `CC(=O)N1CCN(c2ccc(OCC3COC(Cn4ccnc4)(c4ccc(Cl)cc4Cl)O3)cc2)CC1` (stereo not drawn) [KETOCONAZOLE], for which the Kd in [6] was found to be 5 nM.
For `O=C(N[C@@H](Cn1ccnc1)c1ccc(Cl)cc1Cl)c1ccc(-c2nnc(-c3ccc(F)c(F)c3)o2)cc1`, half-maximal inhibition in assay [1] (IC50) required 1280 nM. Further, in assay [6], the Kd worked out at 3 nM.
`O=C(N[C@@H](Cn1ccnc1)c1c(F)cc(-c2ccc(F)cc2)cc1F)c1ccc(-c2nnc(-c3ccccc3)o2)cc1`: half-maximal inhibition in assay [1] (IC50) required 350 nM. In assay [6], the Kd is 7 nM.
In the same order, the values of `O=C(N[C@@H](Cn1ccnc1)c1ccc(-c2ccc(F)cc2)cc1F)c1ccc(-c2nnc(-c3ccccc3)o2)cc1` are 5940 nM and 10 nM.
Consider `CCC(C)n1ncn(-c2ccc(N3CCN(c4ccc(OCC5COC(Cn6cncn6)(c6ccc(Cl)cc6Cl)O5)cc4)CC3)cc2)c1=O` (stereo not drawn) [ITRACONAZOLE], for which the half-inhibitory concentration (IC50) in assay [1] came to 2050 nM.
In the case of `O=C(N[C@@H](Cn1ccnc1)c1ccc(-c2ccc(F)cc2)cc1Cl)c1ccc(-c2nnc(-c3ccccc3)o2)cc1`, half-maximal inhibition in [1] (IC50) was put at 680 nM. Moreover, in assay [6], the Kd stood at 25 nM.
In assay [1], `C[C@@H](c1nc(-c2ccc(C#N)cc2)cs1)C(O)(Cn1cncn1)c1cc(F)ccc1F` (stereo partly drawn) had an IC50 of 900 nM.
With `CC(C)=CCC[C@@H](C)[C@H]1CC[C@@]2(C)[C@@H]3CC[C@H]4C(C)(C)[C@@H](O)CC[C@@]45C[C@]35CC[C@]12C`, in assay [7], the Kd is 829 nM.
On to `CC(C)=CCC[C@@H](C)[C@H]1CC[C@@]2(C)C3=C(CC[C@]12C)[C@@]1(C)CC[C@H](O)C(C)(C)[C@@H]1CC3` [LANOSTEROL], for which, in the assay with Naegleria fowleri [3], the turnover number (kcat) turned out to be 1.07 s⁻¹. Besides, in the assay with Naegleria fowleri [4], the catalytic efficiency (kcat/Km) is 21700 M⁻¹ s⁻¹. For the same compound, the Kd in [2] stood at 28 nM. In addition, the Km with Naegleria fowleri [5] came to 48 µM.
Take `O=C(N[C@@H](Cn1ccnc1)c1ccc(Cl)cc1Cl)c1ccc(-c2nnc(-c3ccccc3)o2)cc1`: the IC50 in assay [8] and in [9] was 5600 nM in each case. Moreover, the Kd in assay [6] is 5 nM.
In assay [1], `O=C(N[C@@H](Cn1ccnc1)c1ccc(Cl)cc1Cl)c1ccc(-c2nnc(-c3ccc(C(F)(F)F)c(F)c3)o2)cc1` gave a concentration for half-maximal inhibition (IC50) of 930 nM. Moreover, the dissociation constant Kd in assay [6] was determined as 11 nM.

In general, IC50 refers to the concentration that inhibits the measured activity by half. Low values mean inhibition by little substance, high ones a need for much substance. The term Kd denotes the free concentration of one partner at which half of the binding sites on the other are occupied at equilibrium, for simple one-to-one binding. A word on the kcat: it is the maximal rate divided by the concentration of active sites. By kcat/Km is commonly meant the second-order rate constant that governs catalysis at low substrate concentration. One may read the Km as the concentration of substrate that gives half-maximal velocity.
